Reference: patent US8729053B2, “Nuclear factor kappa B pathway inhibitor composition and use of same” (The United States of America, as represented by the …, priority 2008, dated 2014)

Assays:
NFκB = NFκB luciferase reporter assay in HEK293 cells; assay type: cell-based; settings: at 1 to 8 μM, TPA 10 ng/ml 18 hours
Experimental: (§1) All expression plasmids were transiently transfected into HEK293 cells in a 96-well plate (0.1 μg/well) by using Effectene transfection reagent (Qiagen, Valencia, Calif.) according to the manufacturer's manual. HEK293 cells were maintained in Dulbecco's modified Eagle medium (Sigma, St. Louis, Mo.) supplemented with 10% fetal bovine serum (Atlanta Biologicals, Lawrenceville, Ga.) and incubated at 37° C. in a 5% CO2 incubator. After 24 hrs incubation, the medium was changed to DMEM with 0.2% FBS, and the transfectants were exposed to various concentrations of compound I and TPA (10 ng/ml). Cells were lysed with passive lysis buffer and the luciferase assay was performed using the Firefly-Luciferase reporter assay system (Promega, Madison, Wis.) and MLX Luminometer (Dynex Technology, Chantilly, Va.).
(§2) Three different luciferase reporter genes, AP-1 reporter containing four times TRE consensus originated from GCN4 and SRE reporter purchased from Stratagene (La Jolla, Calif.) respectively are as described previously (Suzukawa et al., Environ. Health Perspect., 2002, 110, 865-70). NFκB reporter is driven by five times NFκB responsive element inserted into Cis-reporter backbone (Stratagene, La Jolla, Calif.). Others include mouse COX-2 promoter region from −203 to +70 relative to the transcription site inserted into pTIS10L vector (Kim and Fischer, J. Biol. Chem., 1998, 273, 27686-94), human uPAR promoter region from −141 to +47 relative to transcription start site in pGL3 vector (Wang et al., Eur. J. Biochem., 2000, 267, 3248-54), and human VEGF promoter sequence from −2274 to +379 inserted into the pGL2 vector (Ding et al., J. Biol. Chem., 2006, 281, 9093-100).
To evaluate whether the compound I biological activity can imitate TAM67 specificity, three different transcriptional promoter reporters were used, AP-1, NFκB, and SRE (Serum response element) in luciferase reporter assays (FIG. 1A: The transfected cells were pre-treated with varied concentrations of compound I or DMSO for 1 hour before 18 hours stimulation by TPA (10 ng/ml) or DMSO as vehicle. An asterisk (*) indicates a separate experiment with NFκB dependent luciferase only. Assays were performed with two independent experiments each in quadruplicate.). All three activities were induced by TPA but only induction of AP-I and NFκB were inhibited by TAM67. The SRE reporter was used as a specificity control and indicator of cell proliferation. TPA-induced SRE activity was not repressed by TAM67 when coexpressed with the SRE-Luc reporter in HEK293 cells. The same concentration (10 ng/ml, 16.2 nM) and incubation time (18 hrs) were used for TPA induction as previously used for the high throughput screen (HTS) (Ruocco et al., J. Biomol. Screen., 2007, 12, 133-9) along with 1 h pretreatment of compound I. The screening results had tested concentrations as high as 40 μM compound I with cell numbers showing 95.5+/−6.2% of DMSO control (ave+/− sd, n=3) by the XTT assay in HEK293T cells.

IKKβ = biological target: T1, IKKβ (Homo sapiens, UniProt O14920); test: K-LISA IKKβ Inhibitor Screening Kit in vitro assay; assay type: biochemical; settings: 0.1 to 100 μM, incubated with ATP
T1 construct: purchased Calbiochem
T1 sequence (O14920 1-756): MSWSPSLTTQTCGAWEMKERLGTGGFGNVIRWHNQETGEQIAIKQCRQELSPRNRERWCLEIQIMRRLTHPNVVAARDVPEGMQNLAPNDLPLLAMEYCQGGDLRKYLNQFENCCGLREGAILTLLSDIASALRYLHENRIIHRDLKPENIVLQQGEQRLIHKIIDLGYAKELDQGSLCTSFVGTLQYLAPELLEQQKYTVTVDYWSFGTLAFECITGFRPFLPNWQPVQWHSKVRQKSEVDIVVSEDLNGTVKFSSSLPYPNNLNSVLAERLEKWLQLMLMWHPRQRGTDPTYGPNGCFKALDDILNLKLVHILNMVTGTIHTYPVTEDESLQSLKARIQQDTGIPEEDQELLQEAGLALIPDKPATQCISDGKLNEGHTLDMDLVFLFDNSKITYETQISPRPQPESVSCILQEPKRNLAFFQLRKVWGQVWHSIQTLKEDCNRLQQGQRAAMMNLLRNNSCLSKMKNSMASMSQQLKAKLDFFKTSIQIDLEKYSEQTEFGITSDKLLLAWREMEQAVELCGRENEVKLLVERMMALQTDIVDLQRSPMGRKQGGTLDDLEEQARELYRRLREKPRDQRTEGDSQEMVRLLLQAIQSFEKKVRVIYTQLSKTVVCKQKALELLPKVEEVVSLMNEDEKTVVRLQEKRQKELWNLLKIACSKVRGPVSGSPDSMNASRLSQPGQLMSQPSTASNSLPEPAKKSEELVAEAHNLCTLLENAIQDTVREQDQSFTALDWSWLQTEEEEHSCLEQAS
Experimental: In an attempt to determine whether compound I interferes with ATP binding to the catalytic site, the activity of compound I was measured with fully activated, phosphorylated IKKα or IKKβ. […] However, whether this compound interacts outside of the ATP binding pocket of IKK as an ATP non-competitive inhibitor similar to BMS-345541 is unknown. […] Luciferase activities with TPA induction alone were set at 100% and the relative activities with TPA in the presence of compounds are shown.

AP-1 = AP-1 luciferase reporter assay in HEK293 cells; assay type: cell-based; settings: HEK293, TPA 10 ng/ml 18 hours
Experimental: as §1
as §2, with “9093-100). […]” for “9093-100).”

[1] = tested on: SRE (Serum response element); test: SRE luciferase reporter assay in HEK293 cells; assay type: cell-based; settings: HEK293, TPA 10 ng/ml 18 hours
Experimental: as §1
Three different luciferase reporter genes, AP-1 reporter containing four times TRE consensus originated from GCN4 and SRE reporter purchased from Stratagene (La Jolla, Calif.) respectively are as described previously (Suzukawa et al., Environ. Health Perspect., 2002, 110, 865-70). NFκB reporter is driven by five times NFκB responsive element inserted into Cis-reporter backbone (Stratagene, La Jolla, Calif.). […]

Inhibition of phosphorylation of IκBα peptide substrate catalyzed by IKKβ (IKKβ) | Compound | Inhibition of NFκB-Luciferase (NFκB) | Inhibition of TPA-induced AP-1 luciferase activity (AP-1) | TPA-induced SRE luciferase activity [1]
no inhibition | Cc1ccc2nc(NCCN)c3ncc(C)n3c2c1 [BMS-345541, reference compound] | dose-dependent inhibition | without inhibition | –
– | O=C(O)c1cc(/N=N/c2ccc(S(=O)(=O)Nc3ccccn3)cc2)ccc1O [sulfasalazine, reference compound] | – | – | no sparing
